These results are taken from ChEMBL document CHEMBL5620434, “Total Synthesis and Antibacterial Evaluation of Lupinifolin and Its Natural Analogues” (2024).

Each structure is given as a SMILES string. In brackets after ≈: the same amount, converted by molar mass. Activity calls are given as the source filed them. The rule behind the calls is not given here.

In experiment [1] the test system is Staphylococcus aureus. The experiment can be described thus: Antibacterial activity against methicillin-resistant Staphylococcus aureus 21-5 assessed as reduction in bacterial growth incubated for 24 hrs by CLSI protocol based assay. In kind it is functional.
Experiment [2] deals with Enterococcus faecalis. Put plainly: Antibacterial activity against vancomycin-resistant Enterococcus faecalis ATCC51299 assessed as reduction in bacterial growth incubated for 24 hrs by CLSI protocol based assay. In kind it is functional.
Experiment [3] deals with Staphylococcus aureus. The experiment can be described thus: Antibacterial activity against Staphylococcus aureus ATCC29213 assessed as reduction in bacterial growth incubated for 24 hrs by CLSI protocol based assay. It is filed as functional.
Experiment [4] has as its system Escherichia coli. Put plainly: Antibacterial activity against Escherichia coli ATCC 25922 assessed as reduction in bacterial growth incubated for 24 hrs by CLSI protocol based assay. It is filed as functional.
For experiment [5], the system named is Enterococcus faecalis. The experiment can be described thus: Antibacterial activity against Enterococcus faecalis ATCC29212 assessed as reduction in bacterial growth incubated for 24 hrs by CLSI protocol based assay. It is filed as functional.
Experiment [6] concerns Enterococcus faecalis. The experiment can be described thus: Antibacterial activity against Enterococcus faecalis assessed as decrease in bacterial growth measured after 16 to 18 hrs in presence of phosphatidylglycerol. In kind it is functional, organism-based. To be noted: time 16-18 hrs.
For experiment [7], the system named is Cell membrane. The experiment can be described thus: Disruption of membrane integrity in […] Enterococcus faecalis ATCC29212 assessed as appearance of shrunken cell surface at 2.0 ug/ml incubated for 2 hrs by SEM analysis. It is filed as cell membranes. The settings on record: dose 2.0 µg/ml.
The test system of experiment [8] is Escherichia coli. The experiment can be described thus: Antibacterial activity against Escherichia coli ATCC 25922. In kind it is functional.
Experiment [9] relates to Cell membrane. The experiment can be described thus: Disruption of membrane integrity in Enterococcus faecalis ATCC29212 assessed as increase in red fluorescence at 8 times MIC incubated for 2 hrs by EthD-III dye based fluorescence microscopic analysis.
Experiment [10] relates to Enterococcus faecalis. The experiment can be described thus: Antibacterial activity against Enterococcus faecalis assessed as decrease in bacterial growth measured after 16 to 18 hrs in presence of phosphatidylethanolamine. In kind it is functional, organism-based. The settings on record: time 16-18 hrs.
The test system of experiment [11] is Cell membrane. The experiment can be described thus: Disruption of membrane integrity in Enterococcus faecalis ATCC29212 assessed as increase in green fluorescence at 8 times MIC incubated for 2 hrs by NucGreen dye based fluorescence microscopic analysis. It is filed as cell membranes.
Experiment [12] relates to Enterococcus faecalis. Put plainly: Antibacterial activity against Enterococcus faecalis assessed as decrease in bacterial growth measured after 16 to 18 hrs in presence of peptidoglycan. In kind it is functional, organism-based. The settings on record: time 16-18 hrs.
Experiment [13] relates to Enterococcus faecalis. The experiment can be described thus: Antibacterial activity against Enterococcus faecalis assessed as decrease in bacterial growth measured after 16 to 18 hrs in presence of cardiolipin. It is filed as functional, organism-based. The settings on record: time 16-18 hrs.
The test system of experiment [14] is Escherichia coli. Put plainly: Antibacterial activity against Escherichia coli ATCC 25922 in presence of polymyxin B nonapeptide. In kind it is functional.
Experiment [15] relates to Cell membrane. Put plainly: Disruption of membrane integrity in […] Enterococcus faecalis ATCC29212 assessed as appearance of wrinkled cell surface at 2.0 ug/ml incubated for 2 hrs by SEM analysis. It is filed as cell membranes. To be noted: dose 2.0 µg/ml.
For experiment [16], the system named is Cell membrane. Put plainly: Disruption of membrane integrity in […] Enterococcus faecalis ATCC29212 assessed as appearance of ruptured cell surface at 2.0 ug/ml incubated for 2 hrs by SEM analysis. In kind it is cell membranes. To be noted: dose 2.0 µg/ml.
Experiment [17] deals with Streptococcus mutans. Put plainly: Bactericidal activity against Streptococcus mutans by CLSI protocol based assay. It is filed as functional.
Experiment [18] concerns Streptococcus mutans. The experiment can be described thus: Antibacterial activity against Streptococcus mutans by CLSI protocol based assay. It is filed as functional.

A word on the MIC: it is the lowest concentration that inhibits growth of the organism. As to `CC(C)=CCc1c2c(c(O)c3c1O[C@H](c1ccccc1)CC3=O)C=CC(C)(C)O2`, the MIC with Staphylococcus aureus [1], in the experiment on Enterococcus faecalis [2], in the experiment with Staphylococcus aureus [3], with Escherichia coli [4] and with Enterococcus faecalis [5] was over 128 µg/mL throughout.

As for `CC(C)=CCc1c(O)c2c(c3c1OC(C)(C)C=C3)OC(c1ccc(O)cc1O)CC2=O` (stereo not drawn), the result with Enterococcus faecalis [6], with Cell membrane [7], with Cell membrane [9], in the experiment on Cell membrane [11], in the experiment on Enterococcus faecalis [13] and with Cell membrane [15] was Active. Moreover, the outcome with Cell membrane [16] was Active. The minimal inhibitory concentration (MIC) against Escherichia coli [8] was over 128 µg/mL; in the experiment with Staphylococcus aureus [1], 0.25 µg/mL (≈ 0.592 µM); in the experiment on Enterococcus faecalis [2] it was 0.5 µg/mL (≈ 1.18 µM); with Staphylococcus aureus [3], 0.25 µg/mL (≈ 0.592 µM); with Escherichia coli [14], 2 µg/mL; in the experiment on Escherichia coli [4] it was over 128 µg/mL. The minimum inhibitory concentration (MIC) in the experiment on Enterococcus faecalis [5] was 0.25 µg/mL (≈ 0.592 µM). Further, the result with Enterococcus faecalis [10] and with Enterococcus faecalis [12] was inactive.

`CC(C)C[C@@H]1NC(=O)[C@@H](Cc2ccccc2)NC(=O)[C@H](CCN)NC(=O)[C@@H](NC(=O)[C@H](CCN)NC(=O)[C@@H](N)[C@@H](C)O)CCNC(=O)C([C@@H](C)O)NC(=O)[C@H](CCN)NC(=O)[C@H](CCN)NC1=O` (stereo partly drawn) came in with an MIC with Escherichia coli [8] of over 128 µg/mL.

As for `CC1(C)S[C@@H]2[C@H](NC(=O)[C@H](N)c3ccccc3)C(=O)N2[C@H]1C(=O)O` [AMPICILLIN], the MIC with Staphylococcus aureus [1] stood at 32 µg/mL (≈ 91.6 µM); in the experiment with Staphylococcus aureus [3], 0.5 µg/mL (≈ 1.43 µM); in the experiment on Escherichia coli [4] it was 8 µg/mL (≈ 22.9 µM); in the experiment on Enterococcus faecalis [5], 0.5 µg/mL (≈ 1.43 µM).

On to `CC(C)=CCc1c2c(c(O)c3c1O[C@H](c1ccc(O)cc1O)CC3=O)C=CC(C)(C)O2` [FLEMICHIN D], for which the MIC in the experiment with Staphylococcus aureus [1] was 0.5 µg/mL (≈ 1.18 µM); in the experiment on Enterococcus faecalis [2], 0.5 µg/mL (≈ 1.18 µM); in the experiment with Staphylococcus aureus [3] it was 0.5 µg/mL (≈ 1.18 µM); in the experiment with Escherichia coli [4] it was over 128 µg/mL; in the experiment with Enterococcus faecalis [5], 0.5 µg/mL (≈ 1.18 µM).

With `COc1ccc([C@@H]2CC(=O)c3c(O)c4c(c(CC=C(C)C)c3O2)OC(C)(C)C=C4)c(O)c1` [KHONKLONGINOL H], the MIC is 4 µg/mL (≈ 9.16 µM) in the experiment on Staphylococcus aureus [1]; 4 µg/mL (≈ 9.16 µM) in the experiment on Enterococcus faecalis [2]; 2 µg/mL (≈ 4.58 µM) in the experiment on Staphylococcus aureus [3]; over 128 µg/mL in the experiment on Escherichia coli [4]; 1 µg/mL (≈ 2.29 µM) in the experiment on Enterococcus faecalis [5].

What is called MBC is the lowest tested concentration that kills the bacteria rather than only halting them. Read a high MBC as less potent killing. Regarding `CC(C)=CCc1c2c(c(O)c3c1O[C@H](c1ccc(O)cc1)CC3=O)C=CC(C)(C)O2` [LUPINIFOLIN], the MIC in the experiment on Staphylococcus aureus [1] was 2 µg/mL (≈ 4.92 µM); in the experiment with Enterococcus faecalis [2], 1 µg/mL (≈ 2.46 µM); in the experiment on Staphylococcus aureus [3] it was 2 µg/mL (≈ 4.92 µM); against Streptococcus mutans [18], 0.25 µg/mL (≈ 0.615 µM); with Escherichia coli [4], over 128 µg/mL; with Enterococcus faecalis [5], 0.5 µg/mL (≈ 1.23 µM). This compound also gave an MBC with Streptococcus mutans [17] of 0.5 µg/mL (≈ 1.23 µM).

Consider `CC(C)=CCc1c2c(c(O)c3c1O[C@H](c1ccccc1O)CC3=O)C=CC(C)(C)O2` [MINIMIFLORIN], for which the minimal inhibitory concentration (MIC) in the experiment on Staphylococcus aureus [1] was 2 µg/mL (≈ 4.92 µM); in the experiment with Enterococcus faecalis [2], 1 µg/mL (≈ 2.46 µM); in the experiment on Staphylococcus aureus [3], 2 µg/mL (≈ 4.92 µM); in the experiment with Escherichia coli [4], over 128 µg/mL; with Enterococcus faecalis [5], 0.5 µg/mL (≈ 1.23 µM).
